From patent US20220409620A1, “REDUCING IMMUNOGENICITY TO PEGLOTICASE” (Horizon Pharma Rheumatology LLC, priority 2016, published 2022)
Where two headings read alike, the source gives them in different places.

Experiments:
[1] = tested on: adult patients with uncontrolled gout; assay: Patient and physician global assessment of gout, open-label study; format: in vivo, human; conditions: Methotrexate Baseline, mITT Population
From the text: Patient Global Assessment: The patient global assessment was collected at the Screening and Week −4 (prior to the first dose of MTX) Visits during the MTX Run-in Period; prior to KXX infusion at the Day 1 and Weeks 14, 24 and 36 Visits during the KXX+MTX Period; at the End of Pegloticase Infusions Visit (if applicable); the Week 52/End of Study/Early Termination Visit and the Post Treatment Periods 3 and 6 Month Follow-up Visits.
Physician Global Assessment: The physician global assessment was collected at the Screening and Week −4 or week −6 (prior to the first dose of MTX) Visits during the MTX Run-in Period for the open-label and randomized studies, respectively; prior to pegloticase infusion at the Day 1 and Weeks 14, 24 and 36 Visits, and the Day 1 and week 6, 14, 20, 24, 30, 36, and 44 visits during the Pegloticase+IMM Period for the open-label and randomized studies, respectively; at the End of Pegloticase Infusions Visit (if applicable), the Week 52/End of Study/Early Termination Visit and the Post Treatment Periods 3 and 6 Month Follow-up Visits (open-label study).

[2] = tested on: patients with refractory chronic gout; conditions: cited from earlier work; for patients maintaining a response to pegloticase: another study
[3] = End of Pegloticase Infusions Visit

In the case of pegloticase, the “Patient Global Assessment of Gout, Change from Baseline, Mean (SD)” value ([1]; Day 1) is reported as 0.2 (1.85), the “Patient Global Assessment of Gout, Change from Baseline, Median” value ([1]; Day 1) is reported as 0.0 and the “Patient Global Assessment of Gout, Observed, Mean (SD)” value ([1]; Day 1) is reported as 5.8 (1.76). The “Patient Global Assessment of Gout, Observed, Median” value ([1]; Day 1) was 6.0, the “Physician Global Assessment of Gout, Change from Baseline, Mean (SD)” value ([1]; Day 1) was −0.1 (2.35) and the “Physician Global Assessment of Gout, Change from Baseline, Median” value ([1]; Day 1) was 0.0. For the same substance, the “Physician Global Assessment of Gout, Observed, Mean (SD)” value ([1]; Day 1) was 6.0 (2.45), the “Physician Global Assessment of Gout, Observed, Median” value ([1]; Day 1) was 7.0 and the “Patient Global Assessment of Gout, Change from Baseline, Mean (SD)” value ([1]; Early Termination Visit) was 0.7 (2.89). The “Patient Global Assessment of Gout, Change from Baseline, Median” value ([1]; Early Termination Visit) was −1.0, the “Patient Global Assessment of Gout, Observed, Mean (SD)” value ([1]; Early Termination Visit) was 5.7 (3.06) and the “Patient Global Assessment of Gout, Observed, Median” value ([1]; Early Termination Visit) was 5.0. The “Physician Global Assessment of Gout, Change from Baseline, Mean (SD)” value ([1]; Early Termination Visit) was −2.7 (2.08), the “Physician Global Assessment of Gout, Change from Baseline, Median” value ([1]; Early Termination Visit) was −2.0 and the “Physician Global Assessment of Gout, Observed, Mean (SD)” value ([1]; Early Termination Visit) was 3.7 (2.08). For the same substance, the “Physician Global Assessment of Gout, Observed, Median” value ([1]; Early Termination Visit) was 3.0, the “Patient Global Assessment of Gout, Change from Baseline, Mean (SD)” value [1, 3] was −4.0 (4.24) and the “Patient Global Assessment of Gout, Change from Baseline, Median” value [1, 3] was −4.0. The “Patient Global Assessment of Gout, Observed, Mean (SD)” value [1, 3] was 2.0 (2.83), the “Patient Global Assessment of Gout, Observed, Median” value [1, 3] was 2.0 and the “Physician Global Assessment of Gout, Change from Baseline, Mean (SD)” value [1, 3] was −7.0 (0.00). For the same substance, the “Physician Global Assessment of Gout, Change from Baseline, Median” value [1, 3] was −7.0, the “Physician Global Assessment of Gout, Observed, Mean (SD)” value [1, 3] was 0.5 (0.71) and the “Physician Global Assessment of Gout, Observed, Median” value [1, 3] was 0.5. The “Patient Global Assessment of Gout, Change from Baseline, Mean (SD)” value ([1]; Week 14) was −2.5 (2.77), the “Patient Global Assessment of Gout, Change from Baseline, Median” value ([1]; Week 14) was −2.5 and the “Patient Global Assessment of Gout, Observed, Mean (SD)” value ([1]; Week 14) was 3.1 (2.27). For the same substance, the “Patient Global Assessment of Gout, Observed, Median” value ([1]; Week 14) was 3.0, the “Physician Global Assessment of Gout, Change from Baseline, Mean (SD)” value ([1]; Week 14) was −4.2 (2.22) and the “Physician Global Assessment of Gout, Change from Baseline, Median” value ([1]; Week 14) was −5.0. The “Physician Global Assessment of Gout, Observed, Mean (SD)” value ([1]; Week 14) was 1.9 (1.64), the “Physician Global Assessment of Gout, Observed, Median” value ([1]; Week 14) was 2.0 and the “Patient Global Assessment of Gout, Change from Baseline, Mean (SD)” value ([1]; Week 24) was −3.7 (3.23). The “Patient Global Assessment of Gout, Change from Baseline, Median” value ([1]; Week 24) was −3.0, the “Patient Global Assessment of Gout, Observed, Mean (SD)” value ([1]; Week 24) was 2.0 (1.79) and the “Patient Global Assessment of Gout, Observed, Median” value ([1]; Week 24) was 3.0. The “Physician Global Assessment of Gout, Change from Baseline, Mean (SD)” value ([1]; Week 24) was −5.3 (2.10), the “Physician Global Assessment of Gout, Change from Baseline, Median” value ([1]; Week 24) was −6.0 and the “Physician Global Assessment of Gout, Observed, Mean (SD)” value ([1]; Week 24) was 0.8 (0.87). For the same substance, the “Physician Global Assessment of Gout, Observed, Median” value ([1]; Week 24) was 1.0, the “Patient Global Assessment of Gout, Change from Baseline, Mean (SD)” value ([1]; Week 36) was −3.4 (2.92) and the “Patient Global Assessment of Gout, Change from Baseline, Median” value ([1]; Week 36) was −4.0. The “Patient Global Assessment of Gout, Observed, Mean (SD)” value ([1]; Week 36) was 2.1 (2.80), the “Patient Global Assessment of Gout, Observed, Median” value ([1]; Week 36) was 1.0 and the “Physician Global Assessment of Gout, Change from Baseline, Mean (SD)” value ([1]; Week 36) was −5.9 (2.03). For the same substance, the “Physician Global Assessment of Gout, Change from Baseline, Median” value ([1]; Week 36) was −6.0, the “Physician Global Assessment of Gout, Observed, Mean (SD)” value ([1]; Week 36) was 0.7 (1.00) and the “Physician Global Assessment of Gout, Observed, Median” value ([1]; Week 36) was 0.0. The “Patient Global Assessment of Gout, Change from Baseline, Mean (SD)” value ([1]; Week 52/ET) was −4.3 (0.58), the “Patient Global Assessment of Gout, Change from Baseline, Median” value ([1]; Week 52/ET) was −4.0 and the “Patient Global Assessment of Gout, Observed, Mean (SD)” value ([1]; Week 52/ET) was 1.0 (1.00). For the same substance, the “Patient Global Assessment of Gout, Observed, Median” value ([1]; Week 52/ET) was 1.0, the “Physician Global Assessment of Gout, Change from Baseline, Mean (SD)” value ([1]; Week 52/ET) was −7.3 (0.58) and the “Physician Global Assessment of Gout, Change from Baseline, Median” value ([1]; Week 52/ET) was −7.0. The “Physician Global Assessment of Gout, Observed, Mean (SD)” value ([1]; Week 52/ET) was 1.0 (0.00), the “Physician Global Assessment of Gout, Observed, Median” value ([1]; Week 52/ET) was 1.0 and the Non-responders ([2]; C0405 and C0406) was 49/85. For the same substance, the “patients maintaining a response to pegloticase” value ([2]; antibody titer exceeding 1:2430 at any time during treatment, 7 of 65) was 10.8%, the “patients maintaining a response to pegloticase” value ([2]; never had an antibody titer above 1:2430, 58/65) was 89.2% and the “Responders (sUA <6 mg/dL for at least 80% of the time during month 6)” value ([2]; historical Phase 3 monotherapy trials C0405 and C0406, 36/85) was 42%. The “response rate during Month 6” value ([2]; pegloticase 8 mg every 2 weeks, phase 3 studies) was 43%, the “proportion of responders during Month 6” value ([2]; phase 3 studies) was 43.5% and the “incidence of infusion-related reactions” value ([2]; pooled Phase 3, 8 mg biweekly dosing) was 26%. The “incidence of infusion-related reactions” value ([2]; pooled Phase 3, 8 mg every-4-week dosing regimen) was 40%, the “pegloticase-treated patients with IRs in whom loss of response (return to SUA >6 mg/dL) preceded the first IR” value ([2]; pooled Phase 3, 20/21) was 95% and the infusion reactions reported ([2]; pre-marketing controlled clinical trials, 8 mg every 2 weeks) was 26%. The anaphylaxis frequency ([2]; pre-marketing controlled clinical trials) was 6.5%, the “participants with high antibody titers who maintained a response (serum urate <6 mg/dL)” value ([2]; second study) was 1 of 52 participants and the “participants with high titers who developed IR” value ([2]; second study) was 60%. For the same substance, the “patients who developed IRs” value ([2]; titers exceeding 1:2430, 31 of 52) was 60%, the “patients with Cmin below quantitation limit” value ([2]; without MTX, 63/82) was 77% and the “pegloticase overall Cmin, median” value ([2]; without MTX, historical monotherapy, BQL = below quantitation limit of 0.6 μg/mL) was “BQL”. For the same substance, the “pegloticase Cmax, median” value ([2]; without MTX, historical monotherapy) was 1510 ng/mL.
